Assay results: patent US20150219624A1, “METHODS FOR IDENTIFYING ANTI-CANCER COMPOUNDS” (MEMORIAL SLOAN KETTERING CANCER CENTER, priority 2013, published 2015)

System: human T-ALL lines
Assay: mRNA levels of target genes (real-time quantitative PCR)
Type: cell-based
Settings: 25 nM
Experimental: Real-Time Quantitative PCR. Total RNA was extracted using AllPrep DNA/RNA/Protein Mini Kit (Qiagen 80004). Normal CD3+ T-cell RNA mixed from healthy donors was purchased from Miltenyi Biotec (130-093-164). cDNA was made using SuperScript III First-Strand (Invitrogen 18080-400). Analysis was performed by ΔΔCt. Applied Biosystems Taqman GeneExpression Assays: human Myc Hs00153408_m1, hsa-miR-19b RT and TM 396, Rnu6b RT and TM 001093, and mouse Myc Mm00487804_m1.
Given the complexity of the RF data analysis, it was important to directly confirm loss of expression for at least some of these proteins. Briefly, immunoblots on JURKAT and KOPT-K1 cells treated with silvestrol (25 nM) and loaded with equal amounts of total protein confirmed dramatic loss of MYC, NOTCH1, BCL2, and CCND3 proteins (FIG. 6A). The effect on MYC was especially striking, it was dose dependent (FIG. 6B), lasted for 48 h, and was also achieved in xenografts in vivo (Figure S6A-B). […] As expected, ACTIN, TUBULIN, and GAPDH were not affected (FIG. 6A). […] The small and significant increase in MYC mRNA levels might be consistent with prior reports of a MYC auto-regulatory mechanism (Penn et al., 1990a; Penn et al., 1990b) (FIG. 6C).
FIG. 6 depicts validation of selected silvestrol targets. A) Immunoblots of lysates from human T-ALL lines treated with silvestrol (25 nM) and probed as indicated. […]

## COC(=O)[C@H]1[C@@H](O)[C@@]2(O)c3c(OC)cc(O[C@@H]4O[C@@H]([C@H](O)CO)CO[C@H]4OC)cc3O[C@@]2(c2ccc(OC)cc2)[C@@H]1c1ccccc1 [silvestrol]
  corresponding mRNA expression: no decrease
